From paper PMC9635472, “Design, synthesis, and biological evaluation of novel ciprofloxacin derivatives as potential anticancer agents targeting topoisomerase II enzyme” (Journal of Enzyme Inhibition and Medicinal Chemistry, 2022)
Several values for one entry are separate records, joined by “and”; a condition that tells them apart may be missing. Identical values can stand only once.

Columns and labels:
Assay type in all cases: cell-based, human
PC-3 cells = assay: Cell cycle analysis (propidium iodide flow cytometry), PC-3 cells; conditions: for phase of cell cycle arrest: PC-3 cells at IC50 concentrations
Protocol: (§1) The cell cycle was done using a propidium iodide flow cytometry kit (Abcam, ab139418) according to the manufacturer’s instructions. […] After treatment, the cells were washed twice with ice-cold phosphate buffer saline, then centrifuged and fixed using ice-cold 66% (v/v) ethanol, washed with phosphate buffer saline re-suspended with 0.10 mg/ml, and stained with 200 µl propidium iodide. Cells were analysed by flow cytometry. The cell cycle distributions were calculated using cell–quest software (Bectopn Dickinson).
Topoisomerase inhibitors cause DNA damage which is related to G1/S and S phase arrest. Cell cycle arrest prevents the replication of damaged DNA. In PC-3 cell line compounds 6 and 8a probably arrested the cell cycle in the G1 phase by inhibition of Cyclin D–Cdk4–Cdks complex, however in the T-24 cell line, they might arrest the cell cycle in the S phase by the inhibition of both Cyclin D–Cdk4–Cdks complex and cyclins E1–E2/Cdk2, which promote G1/S transition.

T-24 cells [1] = assay: Apoptosis determination by annexin V-FITC/PI assay, T-24 cells; conditions: at IC50, 24 h
Protocol: Apoptosis was evaluated using Annexin V fluorescein isothiocyanate (FITC) and propidium iodide (PI) using the Annexin V-FITC/PI apoptosis detection kit (Biovision, Mountain View, CA # K101-25). According to the manufacturer’s instructions after staining the cells with annexin V fluorescein (FITC) isothiocyanate. […] Cells were centrifuged and washed once with serum-containing media followed by resuspension in 500 µl of binding buffer. Then 5 µl Annexin V-FITC and 5 µl of (PI […]) were added and incubated for 5 min at room temperature in the dark. Analyses were performed using a flow cytometer (EX = 488 nm: Em = 530 nm) using a FITC signal detector and PI staining by a phycoerythrin emission signal detector.
To verify the ability of compounds 6 and 8a to induce apoptosis, a flow cytometry assay was performed using propidium iodide (PI), and immunofluorescent markers of the protein annexin-V. Dual staining for annexin-V and with PI provides the distinction between viable cells, early apoptotic cells, late apoptotic cells, and necrotic cells. […] While compound 8a induced both early and late apoptosis with 21.16- and 114.90-fold more than the control, respectively, and induced total apoptosis and necrosis with 20.1- and 4.28-fold more than the control, sequentially (Figure 14).

T-24 cells [2] = assay: Cell cycle analysis (propidium iodide flow cytometry), T-24 cells; conditions: for phase of cell cycle arrest: T-24 cancer cells
Protocol: as §1
While the accumulation of the cells in the S phase might result from the cell cycle arrest of T-24 cells in the S phase.

| SMILES | phase of cell cycle arrest (PC-3 cells) | decrease in the percentage of cells at the G2/M phase (PC-3 cells; PC-3 cells, at IC50, 24 h) [fold] | increase in the percentage of cells at the G1 phase compared to the control (PC-3 cells; PC-3 cells, at IC50, 24 h) [fold] | early apoptosis, fold more than the control (T-24 cells [1]) [fold] | late apoptosis, fold more than the control (T-24 cells [1]) [fold] | necrosis, fold more than the control (T-24 cells [1]) [fold] | total apoptosis, fold more than the control (T-24 cells [1]) | phase of cell cycle arrest (T-24 cells [2]) | increase in the percentage of cells in the S phase compared to the control (T-24 cells [2]; T-24 cells, at IC50, 24 h) [fold] | increase in the percentage of cells at pre-G1 compared to the control (T-24 cells [2]; T-24 cells, at IC50, 24 h) [fold] |
| --- | --- | --- | --- | --- | --- | --- | --- | --- | --- | --- |
| O=C1CC(=O)N(C(=O)CN2CCN(c3cc4c(cc3F)c(=O)c(C(=O)O)cn4C3CC3)CC2)N1 [Compound 6, 1-cyclopropyl-7-(4-(2-(3,5-dioxopyrazolidin-1-yl)-2-oxoethyl)piperazin-1-yl)-6-fluoro-4-oxo-1,4-dihydroquinoline-3-carboxylic acid] | G1-phase cell cycle arrest | 1.5 | 1.16 | 16.27 | 83.38 | 6.25 | 16.77 fold and 16.8 fold | S phase | 1.4 |  |
| O=C(CN1CCN(c2cc3c(cc2F)c(=O)c(C(=O)O)cn3C2CC2)CC1)NN=C1C(=O)Nc2ccccc21 [Compound 8a, 1-Cyclopropyl-6-fluoro-4-oxo-7-(4-(2-oxo-2-(2-(2-oxoindolin-3-ylidene)hydrazinyl)ethyl)piperazin-1-yl)-1,4-dihydroquinoline-3-carboxylic acid] | G1-phase cell cycle arrest |  | 1.27 | 21.16 | 114.90 | 4.28 | 20.1 fold | S phase | 1.11 | 20.1 |
